A word on the stoichiometry N: it is a count of units in the complex or per binding partner.

The results in this text go back to article PMC5426080, “Catalytic Intermediate Crystal Structures of Cysteine Desulfurase from the Archaeon Thermococcus onnurineus NA1” (Archaea, 2017).

The target in experiment [1] is T1, ToCDS (cysteine desulfurase, CDS) (Thermococcus onnurineus, UniProt B6YT87).
T1 construct: gene TON_0289; full length, 399 residues, N-terminal 7xHis-TEV tag (cleavage not mentioned), E. coli BL21(DE3), about 44 kDa, homodimer; PLP on Lys216, catalytic Cys356; EC 2.8.1.7; primers encode N-terminus MIPEDV and C-terminus KGLKT
T1 sequence (B6YT87 entry or part of it): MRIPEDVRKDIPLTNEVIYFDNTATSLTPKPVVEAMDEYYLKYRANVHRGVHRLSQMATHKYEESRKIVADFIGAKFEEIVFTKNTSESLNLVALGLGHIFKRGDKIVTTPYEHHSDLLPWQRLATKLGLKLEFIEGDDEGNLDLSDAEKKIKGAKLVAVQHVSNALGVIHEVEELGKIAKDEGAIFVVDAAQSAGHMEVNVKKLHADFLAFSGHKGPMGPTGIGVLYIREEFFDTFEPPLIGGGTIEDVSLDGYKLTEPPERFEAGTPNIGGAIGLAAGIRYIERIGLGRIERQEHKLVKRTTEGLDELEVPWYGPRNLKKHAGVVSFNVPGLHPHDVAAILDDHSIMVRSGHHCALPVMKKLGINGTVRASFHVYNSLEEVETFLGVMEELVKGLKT
In words: X-ray crystallography. The experiment is classed as binding. From the text:
X-ray crystallography on ToCDS (cysteine desulfurase, CDS) | PLP was Schiff-base linked with […] at the active site. | the alanine was tightly bound: the conserved […] side chain had bifurcated hydrogen bonds

For experiment [2], the target named is cysteine desulfurase from Thermococcus onnurineus NA1 (Thermococcus onnurineus NA1). Put plainly: crystal structure; ToCDS alone (crystal I, NAT, 2.6 Å, space group P212121), a dimer in the asymmetric unit; crystals II-IV soaked or co-crystallised with 5 mM L-cysteine and 1 mM PLP, each with protomers A and B.

For `C[C@H](N)C(=O)O` [alanine], in experiment [1] (crystal III 1.5 Å (protomer A: unbonded alanine, internal aldimine; protomer B: gem-diamine) and crystal II 2.3 Å (gem-diamine, covalent to PLP), from L-cysteine and PLP by cocrystallization or soakin), the X-ray crystallography result is “the alanine was tightly bound: the conserved Arg371 side chain had bifurcated hydrogen bonds”.
For the molecule `Cc1ncc(COP(=O)(O)O)c(C=O)c1O` [PLP, pyridoxal 5′-phosphate], in experiment [1] (covalent, internal aldimine Schiff base with Lys216, native crystal I, 2.6 Å, pH 8.5), the X-ray crystallography result is “PLP was Schiff-base linked with Lys216 at the active site”.
On to “cysteine desulfurase from Thermococcus onnurineus NA1 (enzyme)”, for which the stoichiometry N in experiment [2] is 2.
